Results as given in ChEMBL document CHEMBL4308834, “Novel Allosteric Activators for Ferroptosis Regulator Glutathione Peroxidase 4” (J Med Chem, 2018).
The source made the active and inactive calls. No cut-off for these calls is given here.

What was measured:
[1] = biological target: T1, Polyunsaturated fatty acid lipoxygenase ALOX12 (Homo sapiens) (UniProt P18054); assay: Inhibition of 12-LOX (unknown origin) at 500 uM preincubated for 1 mins followed by arachidonic acid substrate addition by spectrophotometric method
T1 sequence (whole entry): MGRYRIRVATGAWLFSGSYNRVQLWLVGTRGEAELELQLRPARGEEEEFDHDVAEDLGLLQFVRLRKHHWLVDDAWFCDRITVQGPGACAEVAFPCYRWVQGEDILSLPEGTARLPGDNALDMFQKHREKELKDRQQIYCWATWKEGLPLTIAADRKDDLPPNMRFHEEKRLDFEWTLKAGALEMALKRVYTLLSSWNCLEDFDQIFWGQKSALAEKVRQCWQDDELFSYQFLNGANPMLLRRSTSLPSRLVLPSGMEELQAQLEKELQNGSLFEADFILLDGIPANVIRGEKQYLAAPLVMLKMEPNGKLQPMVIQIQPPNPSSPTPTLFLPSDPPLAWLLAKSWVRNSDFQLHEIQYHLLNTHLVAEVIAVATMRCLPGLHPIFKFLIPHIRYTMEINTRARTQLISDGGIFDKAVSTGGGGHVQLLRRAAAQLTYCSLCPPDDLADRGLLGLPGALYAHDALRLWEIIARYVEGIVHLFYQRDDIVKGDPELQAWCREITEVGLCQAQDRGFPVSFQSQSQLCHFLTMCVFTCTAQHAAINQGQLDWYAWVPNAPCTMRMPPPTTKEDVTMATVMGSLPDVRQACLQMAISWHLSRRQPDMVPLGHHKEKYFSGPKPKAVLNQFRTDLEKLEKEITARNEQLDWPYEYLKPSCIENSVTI

Homo sapiens = species on record: Homo sapiens; assay: Activation of recombinant human GPX4 D23A/U46C double mutant expressed in Escherichia coli M15 assessed as increase in oxidized glutathione-mediated oxidation of NADPH to NADP+ using tert-butyl hydroperoxide as substrate preincubated for 5 mins followed by substrate addition measured for 6 mins by glutathione reductase enzyme coupled fluorescence assay relative to GPX4 U46C mutant control
[2] = biological target: T2, Prostaglandin E synthase (Homo sapiens) (UniProt O14684); assay: Inhibition of mPGES1 (unknown origin) at 500 uM preincubated for 15 mins followed by PGH2 substrate addition and measured after 1 min by EIA relative to control
T2 sequence (whole entry): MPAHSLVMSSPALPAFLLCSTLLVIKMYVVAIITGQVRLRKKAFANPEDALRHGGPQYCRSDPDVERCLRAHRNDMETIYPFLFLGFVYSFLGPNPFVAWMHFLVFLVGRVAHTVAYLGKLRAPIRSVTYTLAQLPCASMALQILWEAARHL

inhibition [1]: inactive | EC150 (Homo sapiens): 372 µM | inhibition [2]: 23%
SMILES: NS(=O)(=O)c1ccc(NC(S)=NCc2ccc(Cl)cc2)cc1
